Assay: stability of budesonide dissolved in water/ethanol at low pH
Format: physicochemical
Settings: pH of 3.5; dissolved in a mixture of water and ethanol
Experimental: In the case of steroids, these are preferably used in suspended form, especially fluticasone. This is particularly true if the solvent used is only water without ethanol. If ethanol is added, the steroid may also be formulated as a solution.

stability in solution: sufficiently stable
Compound: CCCC1O[C@@H]2C[C@H]3[C@@H]4CCC5=CC(=O)C=C[C@]5(C)[C@H]4[C@@H](O)C[C@]3(C)[C@]2(C(=O)CO)O1 (stereo partly shown) [budesonide]
